# Source: US7709606B2, “Interacting polypeptide comprising a heptapeptide pattern and a cellular penetration domain” (Ecole Normale Superieure de Lyon, priority 2003, dated 2010)
# Where two headings read alike, the source gives them in different places.
# Experiments:
# HIV-1-LA1 = experiment: antiviral test in PHA-P activated PBMC, RT activity; assay type: cell-based; settings: for anti-HIV activity, replication of HIV-1-LA1: PBMC activated by PHA-P, 7th day, in words; for Percentage inhibition, Mean: HIV-1 LA1, day 7
# Experimental: (§1) These viruses were amplified in vitro with umbilical blood mononuclear cells (UBMC) activated with PHA-P. The cell-free supernatant was centrifuged at […] for 10 minutes to eliminate soluble factors, and the residue was re-suspended in cell culture medium. Virus stocks were titrated using PBMC cells activated with PHA-P and 50% tissue culture infectious doses (TCID50) were calculated using Kärber's formula.
# PBMC cells were pre-treated for 30 minutes by 5 concentrations of each molecule and infected with 75 TCID50 of the HIV-1-LA1 strain. AZT (1.6, 8, 40, 200 and 1000 nM) and indinavir (1.6, 8, 40, 200 and 1000 nM) were used as the control. […] The molecules were maintained throughout culture, and the cellular supernatant was harvested 7 days post infection and stored at −20° C. to measure viral replication by reverse transcriptase activity (RT) assay.
# (§2) HIV replication was analyzed by assaying the RT activity in the supernatants from cell cultures using the RetroSys RT kit (Innovagen). The experiments were carried out 3 times and the results are expressed as the mean of the RT activity±the standard deviation (SD).
# In a last step, it was examined whether SHPs were actually capable of inhibiting HIV-1 replication. This was carried out in PBMCs activated by PHA-P and in MDMs. […] The effects of different SHPs was thus tested at this time. AZT and indinavir were used as controls.
# HIV-1/Ba-L = experiment: antiviral test in monocyte-derived macrophages (MDM), RT activity; assay type: cell-based; settings: for anti-HIV activity, HIV-1/Ba-L replication: MDM, in words; for Percentage inhibition, Mean / ED70 / ED90 / EC50: MDMs, HIV-1/Ba-L; for EC50: Human immunodeficiency virus 1, BAL, Macrophage, read-out: ED50 (the source's name)
# Experimental: as §1
# The MDM cells were pre-treated for 30 minutes in 6 concentrations of different molecules and infected with 30000 TCID50 of the HIV-1/Ba-L strain. AZT (0.8, 4, 20, 100 and 500 nM) and indinavir (0.8, 4, 20, 100 and 500 nM) were used as the control. […] The molecules were maintained for 7 days post infection, and the cellular supernatant was harvested 7, 14 and 21 days post infection and stored at −20° C. to measure viral replication by reverse transcriptase activity (RT) assay.
# as §2
SMILES,"anti-HIV activity, replication of HIV-1-LA1 (HIV-1-LA1)","ED70 (HIV-1-LA1; PBMCs, HIV-1-LA1, 7th day) [nM]","ED90 (HIV-1-LA1; PBMCs, HIV-1-LA1, 7th day) [nM]","Percentage inhibition, Mean (HIV-1-LA1; PBMCs, Dose 1.6 (nM)) [%]","Percentage inhibition, Mean (HIV-1-LA1; PBMCs, Dose 8 (nM)) [%]","Percentage inhibition, Mean (HIV-1-LA1; PBMCs, Dose 40 (nM)) [%]","Percentage inhibition, Mean (HIV-1-LA1; PBMCs, Dose 200 (nM)) [%]","Percentage inhibition, Mean (HIV-1-LA1; PBMCs, Dose 1000 (nM)) [%]","anti-HIV activity, HIV-1/Ba-L replication (HIV-1/Ba-L)","Percentage inhibition, Mean (HIV-1/Ba-L; Day 7, dose 0.8 (nM)) [%]","Percentage inhibition, Mean (HIV-1/Ba-L; Day 7, dose 4 (nM)) [%]","Percentage inhibition, Mean (HIV-1/Ba-L; Day 7, dose 20 (nM)) [%]","Percentage inhibition, Mean (HIV-1/Ba-L; Day 7, dose 100 (nM)) [%]","Percentage inhibition, Mean (HIV-1/Ba-L; Day 7, dose 500 (nM)) [%]",ED70 (HIV-1/Ba-L; Day 14) [nM],ED90 (HIV-1/Ba-L; Day 14) [nM],"Percentage inhibition, Mean (HIV-1/Ba-L; Day 14, dose 0.8 (nM)) [%]","Percentage inhibition, Mean (HIV-1/Ba-L; Day 14, dose 4 (nM)) [%]","Percentage inhibition, Mean (HIV-1/Ba-L; Day 14, dose 20 (nM)) [%]","Percentage inhibition, Mean (HIV-1/Ba-L; Day 14, dose 100 (nM)) [%]",other results
"Cc1cn([C@H]2C[C@H](N=[N+]=[N-])[C@@H](CO)O2)c(=O)[nH]c1=O [AZT, reference compound]",effectively inhibited,13.5,19,0,81,98,98,100,reduced in a dose-dependent manner,76,72,87,88,93,9,64,0,55,82,92,"Percentage inhibition, Mean (HIV-1/Ba-L; Day 14, dose 500 (nM)): 100%; Percentage inhibition, Mean (HIV-1/Ba-L; Day 21, dose 0.8 (nM)): 0%; Percentage inhibition, Mean (HIV-1/Ba-L; Day 21, dose 4 (nM)): 0%; Percentage inhibition, Mean (HIV-1/Ba-L; Day 21, dose 20 (nM)): 68%; Percentage inhibition, Mean (HIV-1/Ba-L; Day 21, dose 100 (nM)): 81%; Percentage inhibition, Mean (HIV-1/Ba-L; Day 21, dose 500 (nM)): 100%"
"CC(C)(C)NC(=O)[C@@H]1CN(Cc2cccnc2)CCN1C[C@@H](O)C[C@@H](Cc1ccccc1)C(=O)N[C@H]1c2ccccc2C[C@H]1O [IDV, indinavir, reference compound]",effectively inhibited,18,25.5,0,67,92,100,100,reduced in a dose-dependent manner,59,69,90,93,97,26.5,34.5,0,0,68,100,"EC50 (HIV-1-LA1; Human immunodeficiency virus 1, PBMC, PBMCs, HIV-1-LA1, 7th day, read-out: ED50 (the source's name)): 14 nM; EC50 (HIV-1/Ba-L; 336 h, Day 14): 22 nM; EC50 (HIV-1/Ba-L; 504 h, Day 21): 22 nM; Percentage inhibition, Mean (HIV-1/Ba-L; Day 14, dose 500 (nM)): 100%; ED70 (HIV-1/Ba-L; Day 21): 32 nM; ED90 (HIV-1/Ba-L; Day 21): 62 nM; Percentage inhibition, Mean (HIV-1/Ba-L; Day 21, dose 0.8 (nM)): 0%; Percentage inhibition, Mean (HIV-1/Ba-L; Day 21, dose 4 (nM)): 0%; Percentage inhibition, Mean (HIV-1/Ba-L; Day 21, dose 20 (nM)): 47%; Percentage inhibition, Mean (HIV-1/Ba-L; Day 21, dose 100 (nM)): 96%; Percentage inhibition, Mean (HIV-1/Ba-L; Day 21, dose 500 (nM)): 100%"
